Measured values reported in patent US12459951B2, “Compounds that interact with RAS superfamily proteins for treatment of cancers, inflammatory diseases, rasopathies, and fibrotic disease” (SHY Therapeutics, LLC, priority 2022, dated 2025).

Each compound was assayed against T1, Rheb (Homo sapiens, UniProt Q15382) (assay: Rheb GTP Binding Domain Inhibition Assay). Conditions: read-out: Rheb: % inh.
T1 construct: made in house
Description: Protocol for Cdc42 and Rheb GTP Binding Domain Inhibition Assay
The following method was developed as specific assay for cdc42 and Rheb proteins.
• 25 mM Tris-HCl, pH 7.4 • 27 mM KCl • 137 mM NaCl • 1 mM MgCl2 • 1 mM DTT Buffer-II: • 50 mM Tris-HCl, pH 7.0 • 1 mM MgCl2 • 1 mM DTT
The small GTPases proteins cdc42 and Rheb were expressed as His-tagged proteins. For the assay, the cdc42 and Rheb purified small GTPases proteins were diluted in Buffer-I or Buffer-II to a final concentration of 10-30 μg/mL. 200 μL of each diluted protein was added to a nickel-coated 96-well plate and incubated overnight at […]. Then the protein solution was discarded and 200 μL of Buffer-I or Buffer-II was added to each well in the presence of 1% DMSO. Compounds to be tested were added to the protein-coated wells at final concentration of 20 μM, and incubated for 3 hours at room temperature with and without 10-30 μg/mL of Sos added to the final hour of the incubation. When performing IC50 measurements a serial dilution of all tested concentrations was added. Then Cy3-GTP or Cy5-GTP was added to each well to a final concentration of 100 nM. The labeled GTP was incubated for 45 minutes at room temperature. Following GTP incubation, wells were washed 3× in Buffer-I or Buffer-II and 200 μL of Buffer-I or Buffer-II was added to each well. Following washes, the amount of bound labeled-GTP was measured using a SpectraMax M3 (Molecular Devices).

T1 sequence (Q15382 whole entry, the tested form may be a part): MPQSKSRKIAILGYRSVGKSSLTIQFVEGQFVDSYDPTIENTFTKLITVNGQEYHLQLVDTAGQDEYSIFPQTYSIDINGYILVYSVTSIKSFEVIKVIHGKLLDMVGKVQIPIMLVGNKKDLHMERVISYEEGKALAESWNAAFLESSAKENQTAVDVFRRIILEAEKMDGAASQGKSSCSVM

inhibition at 20 µM [%] | Compound
50 to 75 | COc1cnc(Nc2nc(-c3nccn3C)nn3cc(-c4ccn(C(C)C)n4)c(C)c23)nc1 [Compound 56, 6-(1-Isopropyl-1H-pyrazol-3-yl)-N-(5-methoxypyrimidin-2-yl)-5-methyl-2-(1-methyl-1H-imidazol-2-yl)pyrrolo[2,1-f][1,2,4]triazin-4-amine]
26 to 49 | Cc1c(-c2ccn(C(C)C)n2)cn2nc(-c3nccn3C)nc(Nc3ncco3)c12 [Compound 60, N-(6-(1-Isopropyl-1H-pyrazol-3-yl)-5-methyl-2-(1-methyl-1H-imidazol-2-yl)pyrrolo[2,1-f][1,2,4]triazin-4-yl)oxazol-2-amine]
76 to 100 | Cc1c(-c2ccn(C(C)C)n2)cn2nc(-c3nccn3C)nc(Nc3ccn(C)n3)c12 [Compound 61, 6-(1-Isopropyl-1H-pyrazol-3-yl)-5-methyl-2-(1-methyl-1H-imidazol-2-yl)-N-(1-methyl-1H-pyrazol-3-yl)pyrrolo[2,1-f][1,2,4]triazin-4-amine]
50 to 75 | CCn1ccc(-c2cn3nc(-c4nccn4C)nc(Nc4cc(OC)ncn4)c3c2C)n1 [Compound 64, 6-(1-Ethyl-1H-pyrazol-3-yl)-N-(6-methoxypyrimidin-4-yl)-5-methyl-2-(1-methyl-1H-imidazol-2-yl)pyrrolo[2,1-f][1,2,4]triazin-4-amine]
0 | COc1cc(Nc2nc(-c3nccn3C)nn3cc(-c4cccc(OC)n4)c(C)c23)ncn1 [Compound 65, 6-(6-Methoxypyridin-2-yl)-N-(6-methoxypyrimidin-4-yl)-5-methyl-2-(1-methyl-1H-imidazol-2-yl)pyrrolo[2,1-f][1,2,4]triazin-4-amine]
50 to 75 | COc1ccc(-c2cn3nc(-c4nccn4C)nc(Nc4cc(OC)ncn4)c3c2C)cn1 [Compound 66, 6-(6-Methoxypyridin-3-yl)-N-(6-methoxypyrimidin-4-yl)-5-methyl-2-(1-methyl-1H-imidazol-2-yl)pyrrolo[2,1-f][1,2,4]triazin-4-amine]
50 to 75 | Cc1c(-c2ccn(C(C)C)n2)cn2nc(-c3nccn3C)nc(Nc3nnc(C4CC4)o3)c12 [Compound 67, 5-Cyclopropyl-N-(6-(1-isopropyl-1H-pyrazol-3-yl)-5-methyl-2-(1-methyl-1H-imidazol-2-yl)pyrrolo[2,1-f][1,2,4]triazin-4-yl)-1,3,4-oxadiazol-2-amine]
76 to 100 | Cc1c(-c2ccn(C(C)C)n2)cn2nc(-c3nccn3C)nc(Nc3cc(C4CC4)n[nH]3)c12 [Compound 68, N-(3-Cyclopropyl-1H-pyrazol-5-yl)-6-(1-isopropyl-1H-pyrazol-3-yl)-5-methyl-2-(1-methyl-1H-imidazol-2-yl)pyrrolo[2,1-f][1,2,4]triazin-4-amine]
1 to 25 | Cc1c(-c2ccn(C(C)C)n2)cn2nc(-c3nccn3C)nc(Nc3cc(C4CC4)no3)c12 [Compound 69, 3-Cyclopropyl-N-(6-(1-isopropyl-1H-pyrazol-3-yl)-5-methyl-2-(1-methyl-1H-imidazol-2-yl)pyrrolo[2,1-f][1,2,4]triazin-4-yl)isoxazol-5-amine]
1 to 25 | Cc1c(-c2ccn(C(C)C)n2)cn2nc(-c3nccn3C)nc(Nc3nc(C4CC4)no3)c12 [Compound 70, 3-Cyclopropyl-N-(6-(1-isopropyl-1H-pyrazol-3-yl)-5-methyl-2-(1-methyl-1H-imidazol-2-yl)pyrrolo[2,1-f][1,2,4]triazin-4-yl)-1,2,4-oxadiazol-5-amine]
1 to 25 | COc1ccc(Nc2nc(-c3nccn3C)nn3cc(-c4ccn(C(C)C)n4)c(C)c23)cn1 [Compound 71, 6-(1-Isopropyl-1H-pyrazol-3-yl)-N-(6-methoxypyridin-3-yl)-5-methyl-2-(1-methyl-1H-imidazol-2-yl)pyrrolo[2,1-f][1,2,4]triazin-4-amine]
50 to 75 | Cc1c(-c2ccn(C(C)C)n2)cn2nc(-c3nccn3C)nc(Nc3ccn(C(C)C)n3)c12 [Compound 72, N,6-bis(1-Isopropyl-1H-pyrazol-3-yl)-5-methyl-2-(1-methyl-1H-imidazol-2-yl)pyrrolo[2,1-f][1,2,4]triazin-4-amine]
50 to 75 | COc1cncnc1Nc1nc(-c2nccn2C)nn2cc(-c3ccn(C(C)C)n3)c(C)c12 [Compound 73, 6-(1-Isopropyl-1H-pyrazol-3-yl)-N-(5-methoxypyrimidin-4-yl)-5-methyl-2-(1-methyl-1H-imidazol-2-yl)pyrrolo[2,1-f][1,2,4]triazin-4-amine]
0 | COc1ccc(Nc2nc(-c3nccn3C)nn3cc(-c4ccn(C(C)C)n4)c(C)c23)nn1 [Compound 74, 6-(1-Isopropyl-1H-pyrazol-3-yl)-N-(6-methoxypyridazin-3-yl)-5-methyl-2-(1-methyl-1H-imidazol-2-yl)pyrrolo[2,1-f][1,2,4]triazin-4-amine]

The remaining lines, values behind:

Compound | inhibition at 20 µM [%]
COc1cccc(-c2cn3nc(-c4nccn4C)nc(N[C@@H]4CC[C@@H](OC)C4)c3c2-c2ccccc2)c1F (racemic) [Compound 43, rac 6-(2-Fluoro-3-methoxyphenyl)-N-((1R,3R)-3-methoxycyclopentyl)-2-(1-methyl-1H-imidazol-2-yl)-5-phenylpyrrolo[2,1-f][1,2,4]triazin-4-amine] | 26 to 49
COc1cccc(-c2cn3nc(-c4nccn4C)nc(N[C@@H]4CC[C@@H](OC)C4)c3c2-c2ccccn2)c1F (racemic) [Compound 46, rac 6-(2-Fluoro-3-methoxyphenyl)-N-((1R,3R)-3-methoxycyclopentyl)-2-(1-methyl-1H-imidazol-2-yl)-5-(pyridin-2-yl)pyrrolo[2,1-f][1,2,4]triazin-4-amine] | 50 to 75
COc1cccc(-c2cn3nc(-c4nccn4C)nc(N[C@H]4C[C@H](OC)C4)c3c2-c2ccccc2)c1Cl [Compound 32, 6-(2-Chloro-3-methoxyphenyl)-N-((1r,3r)-3-methoxycyclobutyl)-2-(1-methyl-1H-imidazol-2-yl)-5-phenylpyrrolo[2,1-f][1,2,4]triazin-4-amine] | 26 to 49
COc1cccc(-c2cn3nc(-c4nccn4C)nc(N[C@H]4C[C@H](OC)C4)c3c2-c2ccccc2)c1F [Compound 42, 6-(2-Fluoro-3-methoxyphenyl)-N-((1r,3r)-3-methoxycyclobutyl)-2-(1-methyl-1H-imidazol-2-yl)-5-phenylpyrrolo[2,1-f][1,2,4]triazin-4-amine] | 1 to 25
COCCO[C@H]1C[C@H](Nc2nc(-c3nccn3C)nn3cc(-c4cccc(OC)c4F)c(-c4ccccc4)c23)C1 [Compound 44, 6-(2-Fluoro-3-methoxyphenyl)-N-((1r,3r)-3-(2-methoxyethoxy)cyclobutyl)-2-(1-methyl-1H-imidazol-2-yl)-5-phenylpyrrolo[2,1-f][1,2,4]triazin-4-amine] | 26 to 49
COc1cccc(-c2cn3nc(-c4nccn4C)nc(N[C@H]4C[C@H](OC)C4)c3c2-c2ccccn2)c1F [Compound 45, 6-(2-Fluoro-3-methoxyphenyl)-N-((1r,3r)-3-methoxycyclobutyl)-2-(1-methyl-1H-imidazol-2-yl)-5-(pyridin-2-yl)pyrrolo[2,1-f][1,2,4]triazin-4-amine] | 50 to 75
COc1cccc(-c2cn3nc(-c4nccn4C)nc(N[C@H]4C[C@H](OC)C4)c3c2-c2ccn(C)n2)c1F [Compound 47, 6-(2-Fluoro-3-methoxyphenyl)-N-((1r,3r)-3-methoxycyclobutyl)-2-(1-methyl-1H-imidazol-2-yl)-5-(1-methyl-1H-pyrazol-3-yl)pyrrolo[2,1-f][1,2,4]triazin-4-amine] | 1 to 25
COc1cc(Nc2nc(-c3nccn3C)nn3cc(-c4cccnc4)c(C)c23)ncn1 [Compound 48, N-(6-Methoxypyrimidin-4-yl)-5-methyl-2-(1-methyl-1H-imidazol-2-yl)-6-(pyridin-3-yl)pyrrolo[2,1-f][1,2,4]triazin-4-amine] | 50 to 75
COc1cc(Nc2nc(-c3nccn3C)nn3cc(-c4ccncc4)c(C)c23)ncn1 [Compound 49, N-(6-Methoxypyrimidin-4-yl)-5-methyl-2-(1-methyl-1H-imidazol-2-yl)-6-(pyridin-4-yl)pyrrolo[2,1-f][1,2,4]triazin-4-amine] | 26 to 49
COc1cc(Nc2nc(-c3nccn3C)nn3cc(-c4ccn(C(C)C)n4)c(C)c23)n[nH]1 [Compound 51, 6-(1-Isopropyl-1H-pyrazol-3-yl)-N-(5-methoxy-1H-pyrazol-3-yl)-5-methyl-2-(1-methyl-1H-imidazol-2-yl)pyrrolo[2,1-f][1,2,4]triazin-4-amine] | 50 to 75
Cc1c(-c2ccn(C(C)C)n2)cn2nc(-c3nccn3C)nc(Nc3ccncc3)c12 [Compound 52, 6-(1-Isopropyl-1H-pyrazol-3-yl)-5-methyl-2-(1-methyl-1H-imidazol-2-yl)-N-(pyridin-4-yl)pyrrolo[2,1-f][1,2,4]triazin-4-amine] | 0
